In brackets after ≈: the same amount, converted by molar mass. Read-outs that look alike come from different tables or passages of the source. Bridge positions count the residues as written; N and C are the ends. Square brackets hold non-standard residues; d marks the D form. Peptide text beside a SMILES is read from it. * marks the point of attachment. Heptanoyl(6-Me) = CC(C)CCCCC(=O)*; Sulfomethyl = O=S(=O)(O)C*; Nonanoyl = CCCCCCCCC(=O)*; X1 = CC[C@H](C)CCCCC(=O)*; dDab = NCC[C@@H](N)C(=O)O; Heptanoyl = CCCCCCC(=O)*; Octanoyl = CCCCCCCC(=O)*; dDap = NC[C@@H](N)C(=O)O; Dab = NCC[C@H](N)C(=O)O; Dap = NC[C@H](N)C(=O)O
Experiments:
Format in all cases: cell-based
[1] = tested on: Acinetobacter baumannii ABA19-1
In short: (§1)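 Minimal inhibitory concentrations are measured following CLSI microdilution guidance in MH broth. Test concentrations run from 64 down to 0.03 mg/L in doubling steps, with a final bacterial load of (2-4) × 10^5 CFU/mL and 16-20 h incubation at 35-37°C.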

[2] = tested on: Acinetobacter baumannii NCTC 13304 (OXA-27)
In short: as §1

[3] = tested on: Escherichia coli ATCC BAA-2340 (KPC)
In short: as §1

[4] = tested on: Escherichia coli ATCC BAA-2523
In short: as §1

[5] = tested on: Klebsiella pneumoniae ATCC BAA-1705 (KPC)
In short: as §1

[6] = tested on: Klebsiella pneumoniae KPN+19-15
In short: as §1

[7] = tested on: Pseudomonas aeruginosa ATCC 27853
In short: as §1

[8] = tested on: Pseudomonas aeruginosa PAE19-3
In short: as §1

[9] = Nephrotoxicity assay: in vitro cytotoxicity of HK-2 cells by CCK-8 assay; conditions: human, HK-2 cells (human renal), 72 h incubation with drug-containing medium
In short: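 HK-2 human renal cells in RPMI-1640 with 10% FBS were exposed to compounds at final 12.5–500 µg/mL for 72 h, then CCK-8 for 3 h and OD450 read. Viability was normalised to drug-free wells; IC50 came from logarithmic regression over three repeats, with polymyxin B as positive drug.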

| Compound | MIC ([1]; ABA19-1) [µg/mL] | MIC ([2]; NCTC 13304) [µg/mL] | MIC ([3]; ATCC BAA-2340) [µg/mL] | MIC ([4]; ATCC BAA-2523) [µg/mL] | MIC ([5]; ATCC BAA-1705) [µg/mL] | MIC ([6]; KPN+19-15) [µg/mL] | MIC ([7]; ATCC 27853) [µg/mL] | MIC ([8]; PAE19-3) [µg/mL] | IC50 at 72 h [9] [µg/mL] | MIC ([1]; Acinetobacter baumannii ABA19-1) [µg/mL] | MIC ([2]; Acinetobacter baumannii NCTC 13304 (OXA-27)) [µg/mL] | MIC ([3]; Escherichia coli ATCC BAA-2340 (KPC)) [µg/mL] | MIC ([4]; Escherichia coli ATCC BAA-2523) [µg/mL] | MIC ([5]; Klebsiella pneumoniae ATCC BAA-1705 (KPC)) [µg/mL] | MIC ([6]; Klebsiella pneumoniae KPN 19-15) [µg/mL] | MIC ([7]; Pseudomonas aeruginosa ATCC27853) [µg/mL] | MIC ([8]; Pseudomonas aeruginosa PAE19-3) [µg/mL] |
| --- | --- | --- | --- | --- | --- | --- | --- | --- | --- | --- | --- | --- | --- | --- | --- | --- | --- |
| CCCCCCCCC(=O)N[C@@H](CN)C(=O)N[C@H](C(=O)N[C@H](CCN)C(=O)N[C@H]1CCNC(=O)[C@H]([C@@H](C)O)NC(=O)[C@H](CCN)NC(=O)[C@H](CCN)NC(=O)[C@H](CC(C)C)NC(=O)[C@@H](Cc2ccccc2)NC(=O)[C@H](CCN)NC1=O)[C@@H](C)O [Compound 95, Nonanoyl-Dap-Thr-D-Dab-ring(4-10)[Dab-Dab-D-Phe-Leu-Dab-Dab-Thr]] (Nonanoyl-[Dap]T[dDab][Dab][Dab][dF]L[Dab][Dab]T; lactam 4-C) | 0.06 (≈ 0.0504 µM) | 0.06 (≈ 0.0504 µM) | 0.125 (≈ 0.105 µM) | 0.125 (≈ 0.105 µM) | 0.06 (≈ 0.0504 µM) | 0.06 (≈ 0.0504 µM) | 1 (≈ 0.841 µM) | 1 (≈ 0.841 µM) | 113 ± 10.3 (≈ 94.8 µM) |  |  |  |  |  |  |  |  |
| CC[C@H](C)CCCCC(=O)N[C@@H](CN)C(=O)N[C@H](C(=O)N[C@H](CCN)C(=O)N[C@H]1CCNC(=O)[C@H]([C@@H](C)O)NC(=O)[C@H](CCN)NC(=O)[C@H](CCN)NC(=O)[C@H](CC(C)C)NC(=O)[C@@H](CC(C)C)NC(=O)[C@H](CCN)NC1=O)[C@@H](C)O [Compound 96, (S)-6-methyloctanoyl-Dap-Thr-D-Dab-ring(4-10)[Dab-Dab-D-Leu-Leu-Dab-Dab-Thr]] (X1-[Dap]T[dDab][Dab][Dab][dL]L[Dab][Dab]T; lactam 4-C) | 0.03 (≈ 0.026 µM) | 0.03 (≈ 0.026 µM) | 0.03 (≈ 0.026 µM) | 0.03 (≈ 0.026 µM) | 0.03 (≈ 0.026 µM) | 0.03 (≈ 0.026 µM) | 0.5 (≈ 0.433 µM) | 0.5 (≈ 0.433 µM) | 207 ± 13.2 (≈ 179 µM) |  |  |  |  |  |  |  |  |
| CC(C)CCCCC(=O)N[C@@H](CN)C(=O)N[C@H](C(=O)N[C@H](CCN)C(=O)N[C@H]1CCNC(=O)[C@H]([C@@H](C)O)NC(=O)[C@H](CCN)NC(=O)[C@H](CCN)NC(=O)[C@H](CC(C)C)NC(=O)[C@@H](CC(C)C)NC(=O)[C@H](CCN)NC1=O)[C@@H](C)O [Compound 97, 6-methylheptanoyl-Dap-Thr-D-Dab-ring(4-10)[Dab-Dab-D-Leu-Leu-Dab-Dab-Thr]] ({Heptanoyl(6-Me)}-[Dap]T[dDab][Dab][Dab][dL]L[Dab][Dab]T; lactam 4-C) | 0.03 (≈ 0.0263 µM) | 0.03 (≈ 0.0263 µM) | 0.03 (≈ 0.0263 µM) | 0.03 (≈ 0.0263 µM) | 0.03 (≈ 0.0263 µM) | 0.03 (≈ 0.0263 µM) | 0.5 (≈ 0.438 µM) | 0.5 (≈ 0.438 µM) | 217 ± 11.2 (≈ 190 µM) |  |  |  |  |  |  |  |  |
| CCCCCCCC(=O)N[C@@H](CN)C(=O)N[C@H](C(=O)N[C@H](CCN)C(=O)N[C@H]1CCNC(=O)[C@H]([C@@H](C)O)NC(=O)[C@H](CCN)NC(=O)[C@H](CCN)NC(=O)[C@H](CC(C)C)NC(=O)[C@@H](CC(C)C)NC(=O)[C@H](CCN)NC1=O)[C@@H](C)O [Compound 98, Octanoyl-Dap-Thr-D-Dab-ring(4-10)[Dab-Dab-D-Leu-Leu-Dab-Dab-Thr]] (Octanoyl-[Dap]T[dDab][Dab][Dab][dL]L[Dab][Dab]T; lactam 4-C) | 0.03 (≈ 0.0263 µM) | 0.03 (≈ 0.0263 µM) | 0.03 (≈ 0.0263 µM) | 0.03 (≈ 0.0263 µM) | 0.03 (≈ 0.0263 µM) | 0.03 (≈ 0.0263 µM) | 0.5 (≈ 0.438 µM) | 0.5 (≈ 0.438 µM) | 238 ± 9.9 (≈ 209 µM) |  |  |  |  |  |  |  |  |
| CCCCCCC(=O)N[C@@H](CN)C(=O)N[C@H](C(=O)N[C@H](CCN)C(=O)N[C@H]1CCNC(=O)[C@H]([C@@H](C)O)NC(=O)[C@H](CCN)NC(=O)[C@H](CCN)NC(=O)[C@H](CC(C)C)NC(=O)[C@@H](CC(C)C)NC(=O)[C@H](CCN)NC1=O)[C@@H](C)O [Compound 99, Heptanoyl-Dap-Thr-D-Dab-ring(4-10)[Dab-Dab-D-Leu-Leu-Dab-Dab-Thr]] (Heptanoyl-[Dap]T[dDab][Dab][Dab][dL]L[Dab][Dab]T; lactam 4-C) | 0.03 (≈ 0.0266 µM) | 0.03 (≈ 0.0266 µM) | 0.06 (≈ 0.0532 µM) | 0.06 (≈ 0.0532 µM) | 0.03 (≈ 0.0266 µM) | 0.03 (≈ 0.0266 µM) | 1 (≈ 0.887 µM) | 1 (≈ 0.887 µM) | 317 ± 18.1 (≈ 281 µM) |  |  |  |  |  |  |  |  |
| CCCCCCCCC(=O)N[C@@H](CN)C(=O)N[C@H](C(=O)N[C@H](CCN)C(=O)N[C@H]1CCNC(=O)[C@H]([C@@H](C)O)NC(=O)[C@H](CCN)NC(=O)[C@H](CCN)NC(=O)[C@H](CC(C)C)NC(=O)[C@@H](CC(C)C)NC(=O)[C@H](CCN)NC1=O)[C@@H](C)O [Compound 100, Nonanoyl-Dap-Thr-D-Dab-ring(4-10)[Dab-Dab-D-Leu-Leu-Dab-Dab-Thr]] (Nonanoyl-[Dap]T[dDab][Dab][Dab][dL]L[Dab][Dab]T; lactam 4-C) | 0.06 (≈ 0.0519 µM) | 0.06 (≈ 0.0519 µM) | 0.125 (≈ 0.108 µM) | 0.125 (≈ 0.108 µM) | 0.06 (≈ 0.0519 µM) | 0.06 (≈ 0.0519 µM) | 1 (≈ 0.865 µM) | 1 (≈ 0.865 µM) | 117 ± 15.6 (≈ 101 µM) |  |  |  |  |  |  |  |  |
| CC[C@H](C)CCCCC(=O)N[C@@H](CCN)C(=O)N[C@H](C(=O)N[C@H](CN)C(=O)N[C@H]1CCNC(=O)[C@H]([C@@H](C)O)NC(=O)[C@H](CCN)NC(=O)[C@H](CCN)NC(=O)[C@H]([C@@H](C)O)NC(=O)[C@H](Cc2ccccc2)NC(=O)[C@H](CCN)NC1=O)[C@@H](C)O [Compound 101, (S)-6-methyloctanoyl-Dab-Thr-D-Dap-ring(4-10)[Dab-Dab-Phe-Thr-Dab-Dab-Thr]] (X1-[Dab]T[dDap][Dab][Dab]FT[Dab][Dab]T; lactam 4-C) | >64 | >64 | >64 | >64 | >64 | >64 | >64 | >64 | > 500 |  |  |  |  |  |  |  |  |
| CC(C)CCCCC(=O)N[C@@H](CCN)C(=O)N[C@H](C(=O)N[C@H](CN)C(=O)N[C@H]1CCNC(=O)[C@H]([C@@H](C)O)NC(=O)[C@H](CCN)NC(=O)[C@H](CCN)NC(=O)[C@H]([C@@H](C)O)NC(=O)[C@H](Cc2ccccc2)NC(=O)[C@H](CCN)NC1=O)[C@@H](C)O [Compound 102, 6-methylheptanoyl-Dab-Thr-D-Dap-ring(4-10)[Dab-Dab-Phe-Thr-Dab-Dab-Thr]] ({Heptanoyl(6-Me)}-[Dab]T[dDap][Dab][Dab]FT[Dab][Dab]T; lactam 4-C) |  |  |  |  |  |  |  |  | > 500 | >64 | >64 | >64 | >64 | >64 | >64 | >64 | >64 |
| CC(C)CCCCC(=O)N[C@@H](CCN)C(=O)N[C@H](C(=O)N[C@H](COCS(=O)(=O)O)C(=O)N[C@H]1CCNC(=O)[C@H]([C@@H](C)O)NC(=O)[C@H](CCN)NC(=O)[C@H](CCN)NC(=O)[C@H]([C@@H](C)O)NC(=O)[C@@H](Cc2ccccc2)NC(=O)[C@H](CCN)NC1=O)[C@@H](C)O [Compound 103, 6-methylheptanoyl-Dab-Thr-D-Ser(CH2SO3H)-ring(4-10)[Dab-Dab-D-Phe-Thr-Dab-Dab-Thr]] ({Heptanoyl(6-Me)}-[Dab]T[dS](Sulfomethyl)[Dab][Dab][dF]T[Dab][Dab]T; lactam 4-C) | 0.06 (≈ 0.0477 µM) | 0.06 (≈ 0.0477 µM) | 0.03 (≈ 0.0238 µM) | 0.03 (≈ 0.0238 µM) | 0.125 (≈ 0.0993 µM) | 0.125 (≈ 0.0993 µM) | 0.25 (≈ 0.199 µM) | 0.25 (≈ 0.199 µM) | > 500 |  |  |  |  |  |  |  |  |
